Laboratory results reported in US12336980B2, “Dosing regimen for a selective S1P1 receptor agonist” (Vanda Pharmaceuticals Inc., priority 2014, dated 2025).

Tested on: healthy subjects
Test: 12-lead ECG, heart rate, PR interval and ECG abnormalities, cross-over up-titration study
Assay type: in vivo, human
Settings: for mean maximum change from baseline in HR (12-lead ECG): Day 2, 2 h post-dose; for mean maximum change from baseline in HR (12-lead ECG) / decrease in HR vs. baseline (12-lead ECG): mean±SD; for decrease in HR vs. baseline (12-lead ECG): Day 3, 2 h after administration; for time for HR to return to baseline values post-dose (12-lead ECG): Day 2; for occurrence of HR <45 bpm, events / occurrence of HR <45 bpm, subjects: any time during the regimen, 12-lead ECG; for occurrence of PR interval >210 ms, events / occurrence of PR interval >210 ms, subjects: during the course of the study; for occurrence of HR <45 bpm, HR decrease >20 bpm, PR interval ≥200 ms or PR increase >20 ms, events / occurrence of HR <45 bpm, HR decrease >20 bpm, PR interval ≥200 ms or PR increase >20 ms, subjects / percentage of subjects with at least one event (HR <45 bpm, HR decrease >20 bpm, PR ≥200 ms, PR increase >20 ms): first 12 hours on Day 2
Experimental: In a single-center, double-blind, placebo-controlled, randomized, two-way cross-over study, 32 healthy subjects (15 males) received placebo on Day 1 followed by multiple-dose administration of either ponesimod or placebo (ratio 3:1). Ponesimod was administered alternately using regimen A (incremental dose increase from 2 to 20 mg) or B (10 mg for 7 days followed by a single-dose administration of 20 mg). Cardiodynamic (Holter and 12-lead ECG), pharmacokinetic, pharmacodynamic (total lymphocyte count), and safety variables were assessed.
The enrolled subjects came to the study center for each treatment period on Day −2 and participated in a run-in (all study procedures performed without study drug administration) on Day −1. On Day 1, subjects were randomized to one of the two possible sequences of the two up-titration regimens A and B (ratio 1:1). On Day 1, all subjects received placebo; the first study drug administration (or its matching placebo) occurred on Day 2. Regimen A consisted of the novel up-titration regimen: ponesimod was administered once daily (o.d.) orally at a dose of 2 mg on Day 2 and Day 3, 3 mg on Day 4 and Day 5, 4 mg on Day 6 and Day 7, 5 mg on Day 8, 6 mg on Day 9, 7 mg on Day 10, 8 mg on Day 11, 9 mg on Day 12, 10 mg on Day 13 and Day 14, and 20 mg on Day 15. The reference regimen (regimen B) was based on previous studies (Olsson T. et al., Oral ponesimod in relapsing-remitting multiple sclerosis: a randomised phase II trial. J Neurol Neurosurg Psychiatry. 2014; 85 (11): 1198-1208; and Vaclavkova A. et al., Oral ponesimod in patients with chronic plaque psoriasis: a randomised, double-blind, placebo-controlled phase 2 trial. Lancet. 2014; 384 (9959): 2036-2045) and consisted of an o.d. oral administration of ponesimod at a dose of 10 mg for 7 days (i.e., from Day 2 to Day 8) and 20 mg on Day 9. From Day 10 to Day 15 subjects received o.d. the matching placebo. In the placebo group (1:1 sex ratio), subjects received placebo from Day 1 to Day 15. All treatments were administered at the same time in the morning (fasted condition) with approximately 240 mL of water.
Cardiodynamic endpoints were assessed using Holter and 12-lead ECG. The 24-h Holter recordings were performed on Day -1, Day 1, Day 2, Day 9, Day 13, and Day 15. The 12-h Holter recordings were performed on the other days. In addition, Holter data were used to estimate the area under the effect curve (AUEC) for HR. 12-lead ECGs were performed from Day −1 to Day 16 at pre-dose and 1, 2, 3, 4, 5, 6, 8, 10, and 12 h after study drug administration. An additional 12-lead ECG recording was performed at EOFP and EOS. Heart rate nadir, Emax (maximum decrease of mean hourly HR from baseline, which was defined as the mean of the time-matched assessments measured on Day −1 and Day 1 pre-dose), and occurrence of values of interest (HR <45 bpm, HR decrease from baseline >20 bpm, and PR interval increase from baseline >20 ms), and AV-blocks (i.e., […]) were obtained with 12-lead ECG.
Cardiodynamic and pharmacodynamic data are expressed as mean±SD. Repeated measure one-way ANOVAs followed by Tukey's multiple-comparisons tests were used to perform inter-group (i.e., placebo vs. regimen A vs. regimen B) comparisons. Student's t-tests were employed to perform intra-group (baseline vs. treatment) comparisons. Differences were considered to be statistically significant at p <0.05. SAS® version 9.2 (SAS Institute, Cary, NC, USA) was used for the statistical analysis and descriptive statistics of clinical data.

[1] = Regimen A (N = 24), Day 2 to EOFP or EOS visit
[2] = Regimen B (N = 24), Day 2 to EOFP or EOS visit

Compound: CCC/N=C1\S/C(=C\c2ccc(OC[C@H](O)CO)c(Cl)c2)C(=O)N1c1ccccc1C [ponesimod, (R)-5-[3-chloro-4-(2,3-dihydroxy-propoxy)-benz[Z]ylidene]-2-([Z]-propylimino)-3-o-tolyl-thiazolidin-4-one]
- mean maximum change from baseline in HR (12-lead ECG) (2 mg (regimen A)): −9±5.3 bpm
- decrease in HR vs. baseline (12-lead ECG) (2 mg second dose): −9±5.2 bpm
- mean maximum change from baseline in HR (12-lead ECG) (10 mg (regimen B)): −13±6.2 bpm
- decrease in HR vs. baseline (12-lead ECG) (10 mg second dose): −10±5.1 bpm
- pre-dose HR values (range) (Day 4 to last day of administration, ponesimod-treated subjects): 56-60 bpm
- Atrial rhythm, number of events [1]: 19
- Atrial rhythm, number of subjects [1]: 4
- Atrial rhythm, percentage of subjects [1]: 16.7 percentage
- Sinus bradycardia, number of events [1]: 3
- Sinus bradycardia, number of subjects [1]: 3
- Sinus bradycardia, percentage of subjects [1]: 12.5 percentage
- Supraventricular extrasystoles, number of events [1]: 15
- Supraventricular extrasystoles, number of subjects [1]: 3
- Supraventricular extrasystoles, percentage of subjects [1]: 12.5 percentage
- Ventricular extrasystoles, number of events [1]: 1
- Ventricular extrasystoles, number of subjects [1]: 1
- Ventricular extrasystoles, percentage of subjects [1]: 4.2 percentage
- AV-block 1st degree, number of events [2]: 130
- AV-block 1st degree, number of subjects [2]: 6
- AV-block 1st degree, percentage of subjects [2]: 25.0 percentage
- AV-block 2nd degree Mobitz I, number of events [2]: 1
- AV-block 2nd degree Mobitz I, number of subjects [2]: 1
- AV-block 2nd degree Mobitz I, percentage of subjects [2]: 4.2 percentage
- Atrial fibrillation, number of subjects [2]: 1
- Atrial fibrillation, percentage of subjects [2]: 4.2 percentage
- Atrial rhythm, number of events [2]: 12
- Atrial rhythm, number of subjects [2]: 2
- Atrial rhythm, percentage of subjects [2]: 8.3 percentage
- QT prolonged, number of events [2]: 142
- QT prolonged, number of subjects [2]: 6
- QT prolonged, percentage of subjects [2]: 25.0 percentage
- Short PQ, number of events [2]: 147
- Short PQ, number of subjects [2]: 6
- Short PQ, percentage of subjects [2]: 25.0 percentage
- Sinus arrhythmia, number of events [2]: 98
- Sinus arrhythmia, number of subjects [2]: 12
- Sinus arrhythmia, percentage of subjects [2]: 50.0 percentage
- Sinus bradycardia, number of events [2]: 33
- Sinus bradycardia, number of subjects [2]: 3
- Sinus bradycardia, percentage of subjects [2]: 12.5 percentage
- Supraventricular extrasystoles, number of events [2]: 29
- Supraventricular extrasystoles, number of subjects [2]: 7
- Supraventricular extrasystoles, percentage of subjects [2]: 29.2 percentage
- Ventricular extrasystoles, number of events [2]: 3
- Ventricular extrasystoles, number of subjects [2]: 3
- Ventricular extrasystoles, percentage of subjects [2]: 12.5 percentage
- Atrial fibrillation, number of events (Regimen B (N = 24), Day 2 to EOFP or EOS visit, *Serious adverse event): 1
- time for HR to return to baseline values post-dose (12-lead ECG) (regimen A): ≤ 3 h
- occurrence of HR <45 bpm, events (regimen A): 20 events
- occurrence of HR <45 bpm, subjects (regimen A): 3 subjects
- occurrence of PR interval >210 ms, events (regimen A): 79 events
- occurrence of PR interval >210 ms, subjects (regimen A): 6 subjects
- occurrence of HR <45 bpm, HR decrease >20 bpm, PR interval ≥200 ms or PR increase >20 ms, events (regimen A): 14 events
- occurrence of HR <45 bpm, HR decrease >20 bpm, PR interval ≥200 ms or PR increase >20 ms, subjects (regimen A): 6 subjects
- percentage of subjects with at least one event (HR <45 bpm, HR decrease >20 bpm, PR ≥200 ms, PR increase >20 ms) (regimen A): 25%
- time for HR to return to baseline values post-dose (12-lead ECG) (regimen B): ≤ 4 h
- occurrence of HR <45 bpm, events (regimen B): 58 events
- occurrence of HR <45 bpm, subjects (regimen B): 4 subjects
- occurrence of PR interval >210 ms, events (regimen B): 143 events
- occurrence of PR interval >210 ms, subjects (regimen B): 8 subjects
- occurrence of HR <45 bpm, HR decrease >20 bpm, PR interval ≥200 ms or PR increase >20 ms, events (regimen B): 43 events
- occurrence of HR <45 bpm, HR decrease >20 bpm, PR interval ≥200 ms or PR increase >20 ms, subjects (regimen B): 12 subjects
- percentage of subjects with at least one event (HR <45 bpm, HR decrease >20 bpm, PR ≥200 ms, PR increase >20 ms) (regimen B): 50%
